Earlier results as cited in patent US20220370316A1, “BIOCIDE PRODUCT OF BROAD, CONTINUOUS AND PROLONGUED EFFECT BASED ON ETHANOL, BENZALKONIUM CHLORIDE AND COPPER NANOPARTICLES” (priority 2021, published 2022).

Columns and labels:
cutaneous bacteria = conditions: ethanol at 70% concentration, two minutes, skin kept in contact with the alcohol without drying
[1] = after topical application

Compound	cutaneous bacteria destroyed (cutaneous bacteria)	time range of effectivity [1] [h]
CCO [Ethanol, ethanol]	approximately 90%	–
Alkyl-benzyl-dimethyl ammonium chloride [Benzalkonium chloride]	–	≤ 12
